Assay results taken from paper PMC6773697, “Antileukemic activity of novel adenosine derivatives” (Scientific Reports, 2019).

What was measured:
Format in all cases: cell-based, human
[1] = system: intracellular calcium in THP-1 cells; test: Intracellular calcium assay (Fluo-4 NW), THP-1; conditions: THP-1, 2 h incubation
Experimental: Intracellular calcium levels were determined using the fluorescent probe Fluo-4 NW. The cells were plated in 96-well black plates (15 × 10^3 cells/well) and treated with cladribine and the new derivatives. Incubation with drugs was performed for different times (2–48 h). The medium was then removed, and the cells were washed with phosphate buffered saline (PBS)[35],[36]. Finally, a dye loading solution (Fluo-4 NW dye, probenecid, assay buffer—1xHBSS, 20 mM HEPES; 100 μL per well) was processed according to the Fluo-4 NW Calcium Assay Kit protocol (Molecular Probes) and incubated for 30 min in the dark at 37 °C, and then for another 30 min at the room temperature. The measurements were calculated on a fluorescence plate reader for excitation at 494 nm and emission at 516 nm. To avoid errors in the measurement of fluorescence intensity, caused by feasible cell detachment and resulting decrease in the cell number in the samples due to the drug treatment, DNA content was estimated as well.[37] After the measurement of intracellular calcium fluorescence, the probes were centrifuged at 300xg, 10 min. […] Then 100 μl of 5 μM of propidium iodide (PI) was added, the plate was immediately shaken, incubated for 15 min at room temperature in the dark and the fluorescence was read at 350/620 nm with a Fluoroskan Ascent FL microplate reader (Labsystems, Sweden).

γH2AX in HL-60 cells = test: H2AX (phospho S139) In-Cell ELISA, HL-60; conditions: HL-60, 48 h, versus control cells
Experimental: The level H2AX protein phosphorylated Ser139 was measured in tested leukemia cells by using of In-Cell ELISA, ICE assay kit. The cells were seeded on 96-well plates (100 × 10^3/well) and 48 h later, incubated with the appropriate compounds. In some experimental variants, cells were preincubated for 1 h with VE-821 (10 µM). The cells were fixed by adding a final concentration of 4% paraformaldehyde solution (10 min, room temperature). After 2 h of Block Solution incubation, cells were treated with a highly specific antibody. A rabbit monoclonal antibody specific to H2AX (phospho S139) was used (at 1:100, 2 h incubation). Next Secondary Antibody Solution (at 1:1000) were added to the cells. The measurements were obtained on a fluorescence plate reader at an excitation wavelength of 680 nm and emission at 694 nm. The cells were PBS washed and 100 µL of Janus Green Stain was added to each well of the plate (5 min., room temperature). The data were collected at excitation wavelength of 750 nm and emission at 800 nm channel (Fluoroskan Cary Eclipse). Antibody signal intensity was normalized to the total amount using Janus Green cell-stain.

MOLT-4 cells = test: Cell cycle analysis by flow cytometry, MOLT-4; conditions: 80 nM, +VE-821 = 1 h preincubation
Experimental: Cellular DNA content was quantified by flow cytometry. Cells were treated with drugs for 2, 24, and 48 h. For experiments with inhibitors, cells were subjected to 1 h preincubation with VE-821. CLA, CLA-FMOR, CLA-FPIP, or CLA-FPIR was added, and incubation continued for the indicated times under the same conditions. After incubation was completed, cells were collected, washed twice with PBS, and fixed in 70% ethanol. After ethanol fixation (at least 24 h at 4 °C), cells were washed in PBS and centrifuged at 7,000 × g for 10 min at 4 °C. Pelleted cells were stained by adding 300 µL PBS containing PI and RNase at final concentrations of 75 µM and 20 µg/mL, respectively. This was followed by 1 h incubation in total darkness at 37 °C. Stained cells were analyzed using a flow cytometer (Becton Dickinson, San Jose, CA, USA). The cell populations at specific phases of the cell cycle were quantified from a standard count of 10,000 cells using FlowJo cytology software (Ashland, OR, USA)[39],[40].

dCK in HL-60 cells = test: Deoxycytidine kinase activity, HL-60; conditions: HL-60, 24 h incubation
Experimental: (§1) Deoxycytidine kinase activity was measured in accordance with the manufacturer’s protocol. The cells, at final concentration were plated at 1 × 10^6 cells per 24-well plates and cultured with the tested compounds for 24 h. Some cells were preincubated with an ATR kinase inhibitor (VE-821) for 1 h at 37 °C before adding the tested compounds. After drug treatment, the cells were washed with PBS and resuspended in an ice-cold cytosol extraction buffer containing 1 mM phenylmethylsulfonyl fluoride (PMSF) and a protease inhibitor cocktail. The cell lysate was centrifuged at 10,000 × g for 30 min at 4 °C. The protein concentration was determined using the Bradford method. The supernatant (cytosolic fraction) was collected and stored at −80 °C. The clarified cytoplasm extracts, dCK standards, and blank control were added to the appropriate microtiter plate wells with a biotin-conjugated polyclonal antibody prepared specifically for dCK. Avidin conjugated to horseradish peroxidase (HRP) was added to each microplate well and incubated. Then, a TMB substrate solution was added to the plate. […] The enzyme-substrate reaction was terminated by addition of a sulfuric acid solution. The color change was measured spectrophotometrically at a wavelength of 450 nm using a microplate reader (BioTek).

dCK in THP-1 cells = test: Deoxycytidine kinase activity, THP-1; conditions: THP-1, 24 h incubation
Experimental: as §1

[2] = system: caspase-3/7 in HL-60 cells; test: Caspase 3/7 assay, HL-60; conditions: HL-60, 48 h
Experimental: The activities of caspases-3 and −7 were estimated with CellEvent™ Caspse-3/7 Green Detection Reagent (Thermo Fisher Scientific) according to the manufacturer’s protocol. The cells were seeded on 96-well plates (15 × 10^3/ well) and 24 h later, incubated with the appropriate drugs for 24 h or 48 h. The cells were fixed by adding a final concentration of 4% paraformaldehyde solution (10 min, room temperature). Cells were labeled with CellEvent™Caspase-3/7 Green Detection Reagent (5 µM), followed by Hoechst 33342 (5 µg/ml) for 15 minutes in complete medium3. Caspase-3/7 Green Detection Reagent was diluted into PBS with 5% FBS to avoid fluorescence background. After activation of caspase-3/7 in apoptotic cells, the DEVD peptide was cleaved, enabling the dye to bind DNA, which produced a bright, fluorogenic response with absorption/emission maxima of 502/530 nm according with manufacture protocol. Fluorescence intensity was measured using a Fluoroskan Ascent FL plate reader (Labsystem, Sweden). Cysteine protease activity was expressed as a ratio of fluorescence of the drug-treated samples to the corresponding untreated controls (taken as 100%). In some experimental variants, cells were preincubated for 1 h with VE-821 (10 µM) or Z-FA-FMK (caspas-3 inhibitor, 0.5 µM) to confirm that the fluorescence observed in both control and drug-treated cells was due to the presence of caspase-3/7 in samples. The caspase 3/7 signal was normalized to the Hoechst 33342 staining intensity to account for differences in cell seeding density (description in: Intracellular calcium assay section).

For `OC[C@H]1O[C@@H](n2cnc3c(N=CN4CCOCC4)nc(Cl)nc32)C[C@@H]1O` [CLA-FMOR, [6-deamino-6-(N′, N′-3′-oxa-1′, 5′-pentamethyleneformamidine)] cladribine], the “intracellular calcium ion concentration” value [1] was “highest intracellular calcium ion concentration”, the “increase in γH2AX level” value (γH2AX in HL-60 cells) was ~ 2.4 fold and the “MOLT-4 (48h) S, percentage share of cell cycle phase” value (MOLT-4 cells) was 46%. The dCK activity (dCK in HL-60 cells) was “highest dCK activity” and the dCK activity (dCK in THP-1 cells) was “highest dCK activity”.

With `OC[C@H]1O[C@@H](n2cnc3c(N=CN4CCCC4)nc(Cl)nc32)C[C@@H]1O` [CLA-FPIR, [6-deamino-6-(N′, N′-l′, 4′-tetramethyleneformamidino)] cladribine] the “intracellular calcium ion concentration” value [1] was “highest intracellular calcium ion concentration”, the caspase-3/7 level [2] was “highest changes” and the dCK activity (dCK in THP-1 cells) was “highest dCK activity”.
